Source: patent US6881553B2 (priority 1999, dated 2005)
≈ marks a conversion by molar mass, not a printed value. Where “and” joins values, the source holds several entries; their conditions need not be identical. Identical values can stand only once. Entries after “also recorded” stand apart in the source; their conditions may differ. Like-named read-outs stand apart in the source and are kept apart here.

Key:
[1] = test system: L. pneumophila Philadelphia 1; assay type: cell-based, Legionella pneumophila; conditions: disks 2.5 mg or 1.0 mg, BCYE plates, four days
L. pneumophila F4b [2] = assay type: cell-based, Legionella pneumophila; conditions: disks 2.5 mg or 1.0 mg, BCYE plates, four days
L. pneumophila [3] = conditions: cited from earlier work
L. pneumophila [4] = conditions: cited from earlier work; remark: listed apart in the source
[5] = test system: L. pneumophila Philadelphia 1; test: microbe, parasite or virus in culture; assay type: cell-based, Legionella pneumophila; conditions: for MIC90: Legionella pneumophila, 48 h, read-out: MIC which inhibited 90% of L. pneumophila growth (MIC90)
L. pneumophila lysates = assay type: biochemical, Legionella pneumophila; conditions: for inhibition of 14C-acetate incorporation, lysates compared with whole cells: 0.4 mM or 2.0 mM
[6] = test system: L. pneumophila Philadelphia 1; test: microbe, parasite or virus in culture; assay type: cell-based, Legionella pneumophila; conditions: for inhibition of 14C-acetate incorporation: 0.5 mM
L. pneumophila FabT = assay type: biochemical, Legionella pneumophila; conditions: dodecenoyl-CoA substrate, 100 μM NADH, pH 7.4
M. tuberculosis InhA = M. tuberculosis InhA (Mycobacterium tuberculosis, UniProt P9WGR1); conditions: pH 7.4
Chain of M. tuberculosis InhA (P9WGR1 whole entry, looked up): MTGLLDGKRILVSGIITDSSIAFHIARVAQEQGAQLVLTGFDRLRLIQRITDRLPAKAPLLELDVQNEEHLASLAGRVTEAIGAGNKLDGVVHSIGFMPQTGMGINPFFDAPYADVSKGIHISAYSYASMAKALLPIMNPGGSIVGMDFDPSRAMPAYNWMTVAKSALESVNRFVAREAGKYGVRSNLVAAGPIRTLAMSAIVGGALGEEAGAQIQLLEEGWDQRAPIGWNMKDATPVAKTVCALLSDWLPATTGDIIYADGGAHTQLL

L. pneumophila FabX = assay type: biochemical, Legionella pneumophila; conditions: dodecenoyl-CoA substrate, 100 μM NADH, pH 7.4
[7] = biological target: L. pneumophila FabX enoyl reductase (His-tagged FabX); assay type: biochemical; conditions: competitive with regard to DCA (dodecenoyl-CoA) substrate; 100 μM NADH, 100 mM NaPO4 pH 7.4; value (+/- spread)
[8] = biological target: L. pneumophila FabT enoyl reductase (His-tagged FabT) (Legionella pneumophila, UniProt Q5ZUE4); test: biochemical
Chain of L. pneumophila FabT enoyl reductase (His-tagged FabT) (Q5ZUE4 1-268): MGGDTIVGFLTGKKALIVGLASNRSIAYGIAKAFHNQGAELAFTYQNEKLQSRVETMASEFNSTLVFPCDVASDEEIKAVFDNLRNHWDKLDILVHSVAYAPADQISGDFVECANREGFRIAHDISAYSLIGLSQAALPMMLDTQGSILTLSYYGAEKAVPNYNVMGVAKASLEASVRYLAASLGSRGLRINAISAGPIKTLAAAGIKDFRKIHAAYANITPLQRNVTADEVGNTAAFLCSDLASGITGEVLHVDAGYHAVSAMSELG

[9] = biological target: M. tuberculosis InhA enoyl reductase (Mycobacterium tuberculosis, UniProt P9WGR1); test: biochemical
Chain of M. tuberculosis InhA enoyl reductase (P9WGR1 whole entry, looked up): as the sequence (P9WGR1 whole entry, looked up) above

[10] = test system: L. pneumophila in human monocyte-derived macrophages; assay type: cell-based, Legionella pneumophila
[11] = test system: L. pneumophila in PMA-differentiated HL-60 cells; assay type: cell-based, Legionella pneumophila
Saccharomyces cerevisiae = test: Zone of inhibition assay on SAB medium
atypical mycobacteria = test: Zone of inhibition assay; assay type: cell-based; conditions: standard laboratory media
L. pneumophila F4b [12] = test: microbe, parasite or virus in culture; assay type: cell-based; conditions: Legionella pneumophila, read-out: concentration giving 50% inhibition of 14C-acetate incorporation
[13] = test system: Listeria monocytogenes in mouse J774 macrophage-like cells; conditions: GFZ in combination with norfloxacin; cited from earlier work
bacterial species = assay type: cell-based
Legionella sp. strains = assay type: cell-based
[14] = mouse, in vivo; cited from earlier work
Candida albicans = test: Zone of inhibition assay on SAB medium
M. tuberculosis strains [15] = test: M. tuberculosis 7H9 broth assay; assay type: cell-based, Mycobacterium tuberculosis; conditions: 21 days, turbidity
L. pneumophila [16] = assay type: cell-based, Legionella pneumophila; conditions: GFZ 30 μg/ml, three days on CYE agar
M. tuberculosis strains [17] = test: M. tuberculosis susceptibility assay on Middlebrook agar; assay type: cell-based, Mycobacterium tuberculosis; conditions: 27 strains, OADC Middlebrook agar, three weeks 37° C.
[18] = Solubility observations in media; assay type: physicochemical; conditions: aqueous medium
J774 cells = conditions: treatment of J774 cells with GFZ; cited from earlier work
Pseudomonas aeruginosa = assay type: cell-based
Nocardia sp. = assay type: cell-based

For `O=C(O)CCc1ccc(O)c(O)c1` [3,4-HPA, 3,4-dihydroxyphenyl propionic acid], which “antibacterial activity by zone of inhibition” value [1] is on record?
The value was “equally inhibitory”.

What about the “antibacterial activity by zone of inhibition” value (L. pneumophila F4b [2]) of the same compound?
Its value is “equally inhibitory”.

For `CO[C@H]1/C=C/O[C@@]2(C)Oc3c(C)c(O)c4c(O)c(c(/C=N/N5CCN(C)CC5)c(O)c4c3C2=O)NC(=O)/C(C)=C\C=C\[C@H](C)[C@H](O)[C@@H](C)[C@@H](O)[C@@H](C)[C@H](OC(C)=O)[C@@H]1C` [rifampin], which “concentration inhibiting extracellular growth” value (L. pneumophila [3]) is on record?
The value was 0.002 µg/mL.

And the “concentration inhibiting intracellular growth” value (L. pneumophila [4])?
The value was 0.1 µg/mL.

For `CC(C)(Oc1ccc(CCNC(=O)c2ccc(Cl)cc2)cc1)C(=O)O` [bezafibrate], which MIC90 [5] is on record?
The MIC90 was 250 µg/mL (≈ 691 µM).

Which “inhibition of 14C-acetate incorporation, lysates compared with whole cells” value (L. pneumophila lysates) does the source give for `C/C=C/C/C=C/CCC(=O)[C@H]1O[C@H]1C(N)=O` [Cerulenin, cerulenin] here?
The value was “less effective inhibitor”.

What about the “inhibition of 14C-acetate incorporation relative to GFZ at 100 μg/ml” value ([6]; 100 μg/ml (0.45 mM)) of the same compound?
Its value is “slightly better inhibitor”.

Which results are given for `O=C(O)CCc1ccc(O)cc1` [Analog 4-HPA, 4-hydroxyphenylpropionic acid]?
antibacterial activity by zone of inhibition [1]: equally inhibitory; antibacterial activity by zone of inhibition (L. pneumophila F4b [2]): equally inhibitory

For `Cc1ccc(C)c(OCCCC(C)(C)C(=O)SCCNC(=O)CCNC(=O)[C@H](O)C(C)(C)COP(=O)(O)OP(=O)(O)OC[C@H]2O[C@@H](n3cnc4c(N)ncnc43)[C@H](O)[C@@H]2OP(=O)(O)O)c1` [GFZ-CoA], which “mode of inhibition of enoyl reductase activity” value (L. pneumophila FabT) is on record?
The value was “competitive inhibitor”.

And the “mode of inhibition of enoyl reductase activity” value (M. tuberculosis InhA)?
Its value is “competitive inhibitor”.

What about the “mode of inhibition of enoyl reductase activity” value (L. pneumophila FabX) of the same compound?
The value was “competitive inhibitor”.

With `O=C(O)c1ccccc1O` [2-hydroxybenzoic acid] as the compound, how does the “inhibition of 14C-acetate incorporation” value [6] read?
The value was “some efficacy”.

What about the “antibacterial activity by zone of inhibition” value [1] of the same compound?
Its value is “more sensitive to 2-hydroxybenzoic acid (salicylic acid) than GFZ”.

And the “antibacterial activity by zone of inhibition” value (L. pneumophila F4b [2])?
Its value is “more sensitive to 2-hydroxybenzoic acid (salicylic acid) than GFZ”.

For `Cc1ccc(C)c(OCCCC(C)(C)C(=O)SCCNC(=O)CCNC(=O)[C@H](O)C(C)(C)COP(=O)(O)OP(=O)(O)OC[C@H]2O[C@@H](n3cnc4c(N)ncnc43)[C@H](O)[C@@H]2OP(=O)(O)O)c1` [GFZ], which Ki [7] is on record?
Its Ki is 122 µM.

What about the Ki [8] of the same compound?
The Ki was 127 µM.

What about the Ki [9] of the same compound?
Its Ki is 210 µM.

For `CCOC(=O)C(C)(C)Oc1ccc(Cl)cc1` [clofibrate], which “effectiveness at inhibiting intracellular growth relative to GFZ” value [10] is on record?
Its value is “much less effective than GFZ”.

And the “intracellular growth of L. pneumophila in human macrophages” value (“intracellular growth of L. pneumophila” for short) ([10]; 1 mM)?
Its value is “able to slow L. pneumophila growth”.

What about the “inhibition of 14C-acetate incorporation” value [6] of the same compound?
The value was “some efficacy”.

And the “MIC which inhibited 90% of L. pneumophila growth (MIC90)” value ([5]; AYE broth, 48 hrs at 37° C.)?
The value was 100 µg/mL.

Which “concentration inhibiting extracellular growth” value (L. pneumophila [3]) does the source give for `CC[C@H]1OC(=O)[C@H](C)[C@@H](O[C@H]2C[C@@](C)(OC)[C@@H](O)[C@H](C)O2)[C@H](C)[C@@H](O[C@@H]2O[C@H](C)C[C@H](N(C)C)[C@H]2O)[C@](C)(O)C[C@@H](C)C(=O)[C@H](C)[C@@H](O)[C@]1(C)O` [erythromycin] here?
The value was 0.2 µg/mL.

For `Nc1ccc(C(=O)O)c(O)c1` [P-aminosalicyclic acid, para-aminosalicylate], which “inhibition of 14C-acetate incorporation” value [6] is on record?
Its value is “some efficacy”.

Which “L. pneumophila intracellular growth” value ([11]; GFZ 0.4 mM (100 μg/ml)) does the source give for `Cc1ccc(C)c(OCCCC(C)(C)C(=O)O)c1` [GFZ, gemfibrozil] here?
The value was “inhibition of L. pneumophila intracellular growth”.

What about the “concentration required to inhibit intracellular growth within macrophages” value ([11]; macrophages) of the same compound?
The value was 100 µg/mL.

What about the “time after infection at which inhibition of bacterial growth was seen” value ([11]; single-round growth assay with gentamicin, GFZ 0.4 mM (100 μg/ml)) of the same compound?
Its value is ≤ 8 h.

What about the “intracellular growth of L. pneumophila” value ([10]; 0.4 mM (100 μg/ml)) of the same compound?
Its value is “inhibited the intracellular growth”.

What about the “intracellular growth of L. pneumophila” value ([10]; 0.6 mM compared with 0.4 mM) of the same compound?
Its value is “no further reduction in L. pneumophila colonies”.

And the susceptibility (Saccharomyces cerevisiae; SAB medium buffered to pH 7)?
Its susceptibility is “susceptible”.

What about the zone of inhibition (Saccharomyces cerevisiae; unbuffered medium) of the same compound?
The zone of inhibition was “No zone of inhibition”.

What about the susceptibility (atypical mycobacteria) of the same compound?
Its susceptibility is “resistant”.

What about the IC50 (L. pneumophila F4b [12]) of the same compound?
Its IC50 is 100 µg/mL and 400 µM.

And the “reduction of the norfloxacin concentration required to block intracellular growth” value [13]?
The value was “fourfold”.

And the “sensitivity of nonpathogenic bacterial strains” value (bacterial species)?
Its value is “four of the eight strains tested demonstrated sensitivity”.

And the “share of bacterial species tested that demonstrated susceptibility” value (bacterial species)?
Its value is 33%.

And the “sensitivity of Legionella sp. strains (zone of inhibition)” value (Legionella sp. strains)?
The value was “All 39 Legionella sp. strains were sensitive”.

What about the LD50 [14] of the same compound?
The LD50 was 250 mg/20 gm mouse per day.

What about the susceptibility (Candida albicans; SAB medium buffered to pH 7) of the same compound?
The susceptibility was “susceptible”.

And the zone of inhibition (Candida albicans; unbuffered medium)?
Its zone of inhibition is “No zone of inhibition”.

What about the “inhibition of 14C-acetate incorporation into TCA precipitable material in a lysate” value (L. pneumophila lysates; 0.4 mM) of the same compound?
Its value is 15%.

What about the “inhibition of 14C-acetate incorporation, lysates compared with whole cells” value (L. pneumophila lysates) of the same compound?
Its value is “not as effective an inhibitor in these lysates as it was in whole cells”.

What about the “inhibition of 14C-acetate incorporation in lysate, comparison between inhibitors” value (L. pneumophila lysates; 2 mM) of the same compound?
Its value is “not as potent as cerulenin in lysates”.

And the IC50 ([6]; Legionella pneumophila, 0.25 h, read-out: concentration giving fifty percent inhibition of 14C-acetate incorporation)?
The IC50 was 25 µg/mL (≈ 99.9 µM).

And the IC50 ([6]; Legionella pneumophila, 1 h, read-out: concentration giving 50% inhibition of 14C-acetate incorporation)?
The IC50 was 10 µg/mL and 40 µM.

And the IC50 ([6]; Legionella pneumophila, read-out: concentration giving 50% inhibition of 14C-acetate incorporation)?
The IC50 was 100 µM and 25 µg/mL.

What about the inhibition at 400 µM ([6]; Legionella pneumophila, read-out: inhibition of 14C-acetate incorporation into TCA precipitable material in whole cells) of the same compound?
The inhibition at 400 µM was > 90%.

What about the “lowest concentration that inhibited 14C-acetate incorporation” value ([6]; within 15 minutes) of the same compound?
Its value is 10 µg/mL.

What about the “viability of uninfected HL-60 cells” value (HL-60 cells) of the same compound?
Its value is “did not affect the viability”.

What about the “protection of infected HL-60 cells from L. pneumophila cytolytic effects” value (HL-60 cells; 100 μg/ml, infection multiplicity of 0.1 bacteria/cell, 5 days) of the same compound?
The value was “protected infected HL-60 cells”.

What about the “growth of M. tuberculosis strains in 7H9 broth” value (M. tuberculosis strains [15]) of the same compound?
Its value is “inhibits the growth”.

What about the “change in amount of 3-HB-propyl ester” value (L. pneumophila [16]) of the same compound?
The value was “fifty-fold increase”.

And the “concentration that completely inhibited growth of all M. tuberculosis strains” value (M. tuberculosis strains [17])?
Its value is 100 to 200 µg/mL.

What about the “solubility in relation to pH” value [18] of the same compound?
The value was “insoluble at an acid pH; also recorded: decreases as pH decreases”.

What about the “increase of intracellular concentration of norfloxacin” value (J774 cells) of the same compound?
The value was “fourfold”.

And the growth inhibition (Pseudomonas aeruginosa)?
Its growth inhibition is “did not inhibit the growth”.

And the “bacteriostatic or bacteriocidal effect” value ([5]; 10-200 μg/ml, aliquots of MIC cultures plated on CYE)?
The value was “bacteriostatic”.

And the MIC90 [5]?
The MIC90 was 10 µg/mL (≈ 39.9 µM).

What about the zone of inhibition (Nocardia sp.) of the same compound?
Its zone of inhibition is 40-60 mm.
